Laboratory results published in US9034871B2, “Compounds for Alzheimer's disease” (priority 2004, dated 2015).

The compounds below were run on Aβ42 (assay: Detection of secreted Aβ42 with Biosource ELISA kit in H4 cells expressing APP695). Settings: Ab42 lowering, cell based assay; read-out: Ab42 IC50.
Format: cell-based
Description: The present invention provides compositions and methods for lowering Aβ42 levels. To test whether compounds and compositions are capable of modulating Aβ levels, a sandwich enzyme-linked immunosorbent assay (ELISA) is employed to measure secreted Aβ (Aβ42 and/or Aβ40) levels. In this example, H4 cells expressing wide type APP695 are seeded at 200,000 cells/per well in 6 well plates, and incubated at 37 degree C. with 5% CO2 overnight. Cells are treated with 1.5 ml medium containing vehicle (DMSO) or a test compound at 1.25 μM, 2.5 μM, 5.0 μM and 10.0 μM (as well as other concentration if desirable) concentration for 24 hours or 48 hours. The supernatant from treated cells is collected into eppendorf tubes and frozen at −80 degree C. for future analysis.
The amyloid peptide standard is reconstituted and frozen samples are thawed. The samples and standards are diluted with appropriate diluents and the plate is washed 4 times with Working Wash Buffer and patted dry on a paper towel. 100 μL per well of peptide standards, controls, and dilutions of samples to be analyzed is added. The plate is incubated for 2 hours while shaking on an orbital plate shaker at RT. The plate is then washed 4 times with Working Wash Buffer and patted dry on a paper towel. Detection Antibody Solution is poured into a reservoir and 100 μL /well of Detection Antibody Solution is immediately added to the plate. The plate is incubated at RT for 2 hours while shaking and then washed four times with Working Wash Buffer and patted dry on a paper towel. Secondary Antibody Solution is then poured into a reservoir and 100 μL /well of Secondary Antibody Solution is immediately added to the plate. The plate is incubated at RT for 2 hours with shaking, washed 5 times with Working Wash Buffer, and patted dry on a paper towel.
100 μL of stabilized chromogen is added to each well and the liquid in the wells begins to turn blue. The plate is incubated for 30 minutes at room temperature and in the dark. 100 μL of stop solution is added to each well and the plate is tapped gently to mix resulting in a change of solution color from blue to yellow. The absorbance of each well is read at 450 nm having blanked the plate reader against a chromogen blank composed of 100 μL each of stabilized chromogen and stop solution. The plate is read within 2 hours of adding the stop solution. The absorbance of the standards is plotted against the standard concentration and the concentrations of unknown samples and controls are calculated.
These compounds were synthesized via the indicated synthetic route. Ab42 IC50 (uM) refers to IC50 value for Ab42 lowering in e.g., the assay described in Example 6.
Work on `CC(C)(C)C1CCc2c(cc(-c3ccc(Cl)c(Cl)c3)n2-c2ccc(C(=O)O)o2)C1` (stereo not drawn) [5-[5-tButyl-2-(3,4-dichlorophenyl)-4,5,6,7-tetrahydroindol-1-yl] furan-2-carboxylic acid] yielded an IC50 of 11.7 µM. In the case of `Cc1onc(-c2ccccc2)c1-c1cc2c3ccccc3ccc2n1-c1cccc(-c2nn[nH]n2)c1`, the IC50 is reported as 31 µM. With `O=C(O)c1ccc(-n2c(-c3cc4ccccc4o3)cc3c4ccccc4ccc32)o1` [5-(2-benzofuran-2-yl-benzo[e]indol-3-yl) furan-2-carboxylic acid] the IC50 was 22 µM. In the case of `CC1CCc2c(cc(-c3ccccc3)n2-c2nc(C(=O)O)cs2)C1` (stereo not drawn) [2-(5-methyl-2-phenyl-4,5,6,7-tetrahydroindol-1-yl) thiazole-4-carboxylic acid], the IC50 is reported as > 100 µM. `c1ccc(-c2cc3c4ccccc4ccc3n2-c2cccc(-c3nn[nH]n3)c2)nc1` [2-pyridin-2-yl-3-[3-(2H-tetrazol-5-yl)-phenyl]-3H-benzo[e]indole] was tested, and the IC50 was 32 µM. `COC(=O)c1ccc(-n2c(-c3ccccc3)cc3c2CCC(C(C)(C)C)C3)o1` (stereo not drawn) [5-(5-tertButyl-2-phenyl-4,5,6,7-tetrahydroindol-1-yl) furan-2-carboxylic acid methyl ester] was tested, and the IC50 was > 100 µM. With `CCC(C)(C)C1CCc2c(cc(-c3cc4ccccc4o3)n2-c2cccc(C(=O)O)c2)C1` (stereo not drawn) [3-[2-benzofuran-2-yl-5-(1,1-dimethylpropyl) 4,5,6,7-tetrahydroindol-1-yl] benzoic acid] the IC50 was 3.7 µM. Compound `O=C(O)c1ccc(-n2c(-c3ccc(Cl)c(Cl)c3)cc3c2CCC(C(F)(F)F)C3)o1` (stereo not drawn) [5-[2-(3,4-dichlorophenyl)-5-trifluoromethyl 4,5,6,7-tetrahydroindol-1-yl]-furan-2-carboxylic acid] has an IC50 of 1.6 µM. `O=C(O)c1coc(Cn2c(-c3cc(-c4ccccc4)no3)cc3c2CCc2ccccc2-3)c1` [5-[2-(3-phenylisoxazol-5-yl)-4,5-dihydrobenzo[e]indol-3-ylmethyl] furan-3-carboxylic acid] was tested, and the IC50 was > 100 µM. Work on `c1ccc(-c2cc3c(n2-c2cccc(-c4nn[nH]n4)c2)CCc2ccccc2-3)cc1` [drawing 1720, 2-phenyl-3-[3-(2H-tetrazol-5-yl)-phenyl]-4,5-dihydro-3H-benzo[e]indole] yielded an IC50 of 24 µM. Compound `c1cc(-c2nn[nH]n2)cc(-n2c(-c3ccc4c(c3)OCO4)cc3c4ccccc4ccc32)c1` [2-benzo[1,3]dioxol-5-yl-3-[3-(2H-tetrazol-5-yl)-phenyl]-3H-benzo[e]indole] has an IC50 of 56 µM. `O=C(O)c1ccc(-n2c(-c3ccccc3)cc3c2CCC(C2CCCCC2)C3)o1` (stereo not drawn) [5-(5-cyclohexyl-2-phenyl-4,5,6,7-tetrahydroindol-1-yl)-furan-2-carboxylic acid] gave an IC50 of 40 µM. `c1cncc(-c2cc3c(n2-c2cccc(-c4nn[nH]n4)c2)CCc2ccccc2-3)c1` [2-pyridin-3-yl-3-[3-(2H-tetrazol-5-yl)-phenyl]-4,5-dihydro-3H-benzo[e]indole] was tested, and the IC50 was > 100 µM. With `O=C(O)CCCc1ccc(-n2c(-c3ccc(-c4ccc(Cl)cc4Cl)o3)cc3c4ccccc4ccc32)cc1` [4-(4-{2-[5-(2 4-dichlorophenyl)-furan-2-yl]-benzo[e]indol-3-yl}-phenyl) butyric acid] the IC50 was 17 µM.

Same assay, conditions: IC50 value for Ab42 lowering in e.g. the assay described in Example 6; read-out: Ab42 IC50
With `CC1CCCc2c1cc(-c1ccccc1)n2-c1cccc(C(=O)O)c1` (stereo not drawn) [Compound 91, 3-(4-methyl-2-phenyl-4,5,6,7-tetrahydroindol-1-yl) benzoic acid] the IC50 was 3 µM. `O=C(O)CCc1cccc(-n2c(-c3ccccc3)cc3c2CCCC3)c1` [Compound 90, 3-[3-(2-phenyl-4,5,6,7-tetrahydroindol-1-yl)-phenyl] propionic acid] showed an IC50 of 54 µM. Compound `O=C(O)c1cccc(-n2c(-c3ccccc3)cc3c2CCC(c2ccccc2)C3)c1` (stereo not drawn) [Compound 71, 3-(2,5-diphenyl 4,5,6,7-tetrahydroindol-1-yl) benzoic acid] has an IC50 of 50 µM. With `O=C(O)c1cccc(-n2c(-c3ccccc3)cc3c4ccccc4ccc32)c1` [Compound 87, 3-(2-phenylbenzo[e]indol-3-yl) benzoic acid] the IC50 was 12 µM.
